Source: US20100173972A1, “METHODS AND USES RELATED TO RHBDL4” (MEDICAL RESEARCH COUNCIL, priority 2007, published 2010)
Entries after “also recorded” stand apart in the source; their conditions may differ.

What was measured:
[1] = tested on: TGFalpha release, HEK293T cells; experiment: Time course after PMA induction of HEK293T cells overexpressing pro-TGFalpha, with protease inhibitors; type: cell-based, human; details: HEK293T
Method: Cell culture and cell-based rhomboid cleavage assay. Cells were propagated in DMEM supplemented with 10% fetal calf serum. COS-7 cells were transfected in 35 mm wells with FuGENE 6 (Roche) as described (7). In brief, 250 ng plasmid encoding the substrate (as indicated in the description of the figures), 25 ng for the rhomboid tested, 50 ng for the GRP receptor and empty plasmid to bring the total DNA to 1 μg was used. For protease titration, 2.5 ng to 250 ng plasmid coding RHBDL4 was used. HeLa and HEK293T were transfected with polyethyleneimine (linear, MW 25000; Polysciences) as described (32) using twice the amount of DNA as used with FuGENE. Transfection efficiency was monitored by co-transfection of pEGFP (Invitrogen). Sixteen hours post transfection, medium was replaced with serum-free medium containing 10 μM BB94 (British Biotech) unless otherwise stated. For activation of endogenous rhomboid activity, phorbol 12-myristate 13-acetate (PMA) (1 μM, from Sigma) or bombesin (100 nM, from Sigma) was added to the cell medium. For inhibitor studies, the indicated protease inhibitors (from Calbiochem), diluted from a stock solution in DMSO, were compared with a carrier only. Medium was harvested typically after 24 to 30 hours; for inhibitor studies using 3,4-Dichloroisocoumarin (DCI) a time course with 0 minutes, 30 minutes and 4 hours was performed (FIG. 4C). Cells were solubilized in SDS-sample buffer and analyzed by SDS-PAGE. EndoH (New England Biolabs) and PNGaseF (New England Biolabs) treatment of SDS-solubilized cell extracts was performed according to the manufacturers instructions. Conditioned media were centrifuged for 10 minutes at full speed in a microfuge to remove cell debris, and subsequently proteins in the supernatant were precipitated by adding trichloroacetic acid (TCA) to 10%. The precipitate was recovered by centrifugation, washed with acetone and dissolved in SDS-PAGE sample buffer and analyzed by SDS-PAGE. Alternatively to TCA precipitation, TGFalpha-H8 in conditioned medium was captured by metal-chelate chromatography using Ni-NTA agarose beads (Qiagen) in the presence of 20 mM imidazole at pH 8.0. Subsequently beads were washed with 20 mM Tris-Cl pH 8.0, 50 mM imidazole, eluted with SDS-sample buffer and analyzed by SDS-PAGE and Western blotting (see below). Typically, from a 35 mm tissue culture dish, 10% of cell extracts and 20% of tissue culture supernatant were loaded. To increase the sensitivity, for experiments shown in FIGS. 1C, 3E, 4A and 4C, five times the amount of the media fractions were loaded.
Western blotting. Proteins were analyzed by 4-20% Tris-Glycine gradient gels (Invitrogen) followed by Western blot analysis using either anti FLAG M2-HRP (1:1000; Sigma), anti HA antibody 16B12 (1:1000; Covance), anti actin antibody ab8227 (1:5000; Abcam) or affinity purified polyclonal rabbit antibody anti RHBDL4 (1:4000; see above). In order to detect the 6 kDa form of TGFalpha, proteins were transferred on PVDF membrane with 0.2 μm pore size (Millipore) and probed with 1:100 anti TGFalpha antibody 134A-2B3 (Oncogene). For the detection of phosphorylated EGFR, PVDF membranes were blocked in 3% BSA in TBS-Tween supplemented with 200 μM NaVO3. Protein was detected with anti phospho-EGFR antibody 9H2 (1:2000, Upstate). […] Bound antibodies were detected by incubation with secondary antibody (Santa Cruz Biotechnology) followed by enhanced chemiluminescence (Amersham Biosciences).

[2] = target: T1, mouse RHBDL4 (Mus musculus, UniProt Q8BHC7); experiment: Cell-based rhomboid cleavage assay: pro-TGFalpha cleavage by overexpressed RHBDL4; design: expressed in transfected cells; host or cells: COS-7 (also HeLa and HEK293T), pcDNA3.1
T1 sequence (Q8BHC7 1-315): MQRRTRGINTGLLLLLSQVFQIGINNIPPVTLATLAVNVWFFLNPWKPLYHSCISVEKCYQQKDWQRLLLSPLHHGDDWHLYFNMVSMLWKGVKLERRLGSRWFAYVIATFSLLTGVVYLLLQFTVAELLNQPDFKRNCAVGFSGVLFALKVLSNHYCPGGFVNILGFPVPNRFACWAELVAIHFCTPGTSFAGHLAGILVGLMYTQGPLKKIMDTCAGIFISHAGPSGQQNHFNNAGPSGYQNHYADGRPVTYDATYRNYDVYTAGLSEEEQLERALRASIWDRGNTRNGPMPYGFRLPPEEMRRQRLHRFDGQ
Method: (§1) Cell culture and cell-based rhomboid cleavage assay. Cells were propagated in DMEM supplemented with 10% fetal calf serum. COS-7 cells were transfected in 35 mm wells with FuGENE 6 (Roche) as described (7). In brief, 250 ng plasmid encoding the substrate (as indicated in the description of the figures), 25 ng for the rhomboid tested, 50 ng for the GRP receptor and empty plasmid to bring the total DNA to 1 μg was used. For protease titration, 2.5 ng to 250 ng plasmid coding RHBDL4 was used. HeLa and HEK293T were transfected with polyethyleneimine (linear, MW 25000; Polysciences) as described (32) using twice the amount of DNA as used with FuGENE. Transfection efficiency was monitored by co-transfection of pEGFP (Invitrogen). […] Cells were solubilized in SDS-sample buffer and analyzed by SDS-PAGE. […] The precipitate was recovered by centrifugation, washed with acetone and dissolved in SDS-PAGE sample buffer and analyzed by SDS-PAGE. […] Subsequently beads were washed with 20 mM Tris-Cl pH 8.0, 50 mM imidazole, eluted with SDS-sample buffer and analyzed by SDS-PAGE and Western blotting (see below). […]
(§2) Western blotting. […] Protein was detected with anti phospho-EGFR antibody 9H2 (1:2000, Upstate). […] Bound antibodies were detected by incubation with secondary antibody (Santa Cruz Biotechnology) followed by enhanced chemiluminescence (Amersham Biosciences).

[3] = tested on: HB-EGF shedding, COS-7 cells; experiment: HB-EGF secretion in COS-7 cells overexpressing the bombesin receptor; type: cell-based, green monkey
Method: Cells were propagated in DMEM supplemented with 10% fetal calf serum. COS-7 cells were transfected in 35 mm wells with FuGENE 6 (Roche) as described (7). In brief, 250 ng plasmid encoding the substrate (as indicated in the description of the figures), 25 ng for the rhomboid tested, 50 ng for the GRP receptor and empty plasmid to bring the total DNA to 1 μg was used. […] Transfection efficiency was monitored by co-transfection of pEGFP (Invitrogen). Sixteen hours post transfection, medium was replaced with serum-free medium containing 10 μM BB94 (British Biotech) unless otherwise stated. For activation of endogenous rhomboid activity, phorbol 12-myristate 13-acetate (PMA) (1 μM, from Sigma) or bombesin (100 nM, from Sigma) was added to the cell medium. For inhibitor studies, the indicated protease inhibitors (from Calbiochem), diluted from a stock solution in DMSO, were compared with a carrier only. […] Cells were solubilized in SDS-sample buffer and analyzed by SDS-PAGE. […] Conditioned media were centrifuged for 10 minutes at full speed in a microfuge to remove cell debris, and subsequently proteins in the supernatant were precipitated by adding trichloroacetic acid (TCA) to 10%. The precipitate was recovered by centrifugation, washed with acetone and dissolved in SDS-PAGE sample buffer and analyzed by SDS-PAGE. […]

[4] = tested on: pro-TGFalpha shedding; experiment: BB94 sensitivity of endogenous pro-TGFalpha shedding and trimming (cell-based cleavage assay)
Method: as §1, with “(Invitrogen). Sixteen hours post transfection, medium was replaced with serum-free medium containing 10 μM BB94 (British Biotech) unless otherwise stated. For activation of endogenous rhomboid activity, phorbol 12-myristate 13-acetate (PMA) (1 μM, from Sigma) or bombesin (100 nM, from Sigma) was added to the cell medium.” for “(Invitrogen).”
Western blotting. Proteins were analyzed by 4-20% Tris-Glycine gradient gels (Invitrogen) followed by Western blot analysis using either anti FLAG M2-HRP (1:1000; Sigma), anti HA antibody 16B12 (1:1000; Covance), anti actin antibody ab8227 (1:5000; Abcam) or affinity purified polyclonal rabbit antibody anti RHBDL4 (1:4000; see above). […] Protein was detected with anti phospho-EGFR antibody 9H2 (1:2000, Upstate). […] Bound antibodies were detected by incubation with secondary antibody (Santa Cruz Biotechnology) followed by enhanced chemiluminescence (Amersham Biosciences).

[5] = tested on: cells; experiment: Toxicity of DCI to cells during TGFalpha release experiment; type: cell-based; details: over several hours, similar time course as TGFalpha release
Description: A central prediction of our model is that the observed BB94-insensitive TGFalpha release would be inhibited by the serine protease inhibitor DCI, a rhomboid inhibitor. […] To help the cells survive, we expressed the antiapoptotic protein Bch XL. […] Overall, these experiments strongly support that EGFR transactivation is triggered by RHBDL4-catalysed shedding of pro-TGFalpha.
as §1, with “HeLa and HEK293T were transfected with polyethyleneimine (linear, MW 25000; Polysciences) as described (32) using twice the amount of DNA as used with FuGENE.” left out

[6] = target: T1, mouse RHBDL4; experiment: In vitro activity assay with recombinant mouse RHBDL4 (Gurken TMD substrate); type: biochemical; design: His6 (C); made in house; host or cells: E. coli BL21-Gold(DE3) with pRARE2; Triton X-100 solubilised membrane fraction; details: Triton-X 100 solubilised E. coli membrane fraction; also run with mouse RHBDL1 and human RHBDL2
Description: To produce recombinant RHBDL4, a RHBDL4-purification tag fusion protein is expressed and solubilised with detergent appropriate for in vitro activity assay. In this example, C-terminally His6-tagged mouse RHBDL4 is expressed in E. coli BL21-Gold(DE3) cells harbouring the expression vector and the extra plasmid pRARE2 (Novagen) as described for human RHBDL2 (Lemberg, 2005, EMBO vol 24 pp 464-472).
After the protein expression, cells are disrupted and membranes containing the recombinant RHBDL4 are harvested by centrifugation as had been described (Lemberg, 2005 above).
Subsequently the recombinant protein is solubilised with the detergent Triton-X 100 and tested for activity.
Radiolabelled substrate, such as the substrate TMD, is generated by cell-free in vitro translation using wheat germ extract and [35S]methionine as, had been described (Lemberg and Martoglio, 2003 Anal Biochem. vol 319 pp 327-31).
In this example a substrate corresponding to an N-terminal methionine plus residues 224 to 272 of Drosophila Gurken is used. […]
For the cleavage assay, 1-4 μl in vitro translation mix or 50-200 μg/ml recombinant substrate are added to a 40 μl-reaction containing recombinant RHBDL4 (e.g. about 1-5 μg) in 50 mM HEPES/NaOH, pH 7.4, 10% glycerol and 50 mM EDTA. Samples are incubated at 30° C. and subsequently the cleavage reaction is analyzed by SDS-PAGE as described (Lemberg, 2005 above). […]

[7] = tested on: protein kinase C (PKC); experiment: PMA-induced TGFalpha shedding (transactivation); type: cell-based; details: PMA 1 μM
Method: as §1, §2

[8] = tested on: proteasome; experiment: Proteasome inhibitor treatment of cells expressing pro-TGFalpha; type: cell-based; details: 2 μM
Method: as §1, with “(Invitrogen). Sixteen hours post transfection, medium was replaced with serum-free medium containing 10 μM BB94 (British Biotech) unless otherwise stated. For activation of endogenous rhomboid activity, phorbol 12-myristate 13-acetate (PMA) (1 μM, from Sigma) or bombesin (100 nM, from Sigma) was added to the cell medium.” for “(Invitrogen).”

[9] = target: human pro-TGFalpha, P01135
[10] = target: T2, Drosophila Spitz, Q01083
T2 chain: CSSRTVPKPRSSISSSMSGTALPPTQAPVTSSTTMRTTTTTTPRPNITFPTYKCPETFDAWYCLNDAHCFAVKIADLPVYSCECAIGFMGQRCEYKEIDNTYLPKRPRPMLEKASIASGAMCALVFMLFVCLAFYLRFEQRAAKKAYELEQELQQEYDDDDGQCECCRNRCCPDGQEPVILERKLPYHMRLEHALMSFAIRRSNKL

[11] = target: RHBDL4-processed extracellular TGFalpha (post-translationally modified higher MW forms), P01135
[12] = BB94 20 μM, FLAG6-tagged pro-TGFalpha

human pro-TGFalpha, P01135, sequence (P01135 whole entry, looked up): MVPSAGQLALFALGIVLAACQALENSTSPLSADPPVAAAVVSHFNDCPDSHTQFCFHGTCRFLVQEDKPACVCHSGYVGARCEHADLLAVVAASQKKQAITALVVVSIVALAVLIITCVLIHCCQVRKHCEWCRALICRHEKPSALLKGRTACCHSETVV
RHBDL4-processed extracellular TGFalpha (post-translationally modified higher MW forms), P01135, sequence (P01135 whole entry, looked up, tested part not stated): as the sequence (P01135 whole entry, looked up) above

Molecule: CNC(=O)[C@H](Cc1ccccc1)NC(=O)[C@H](CC(C)C)[C@H](CSc1cccs1)C(=O)NO [BB94]
- Release of the 6 kDa form of TGFalpha ([1]; BB94 20 μM, PMA induction): inhibited
- RHBDL4 cleavage of pro-TGFalpha: sensitivity to inhibitor ([2]; COS-7 cells, BB94 10 μM): insensitive
- RHBDL4-triggered TGFalpha release: sensitivity to inhibitor ([2]; HEK293T cells, TGFalpha with juxtamembrane His8-tag): insensitive
- Bombesin-enhanced HB-EGF release: sensitivity to inhibitor ([3]; BB94 20 μM, bombesin treatment): insensitivity
- HB-EGF shedding by ADAM proteases in unstimulated cells: sensitivity to inhibitor ([3]; unstimulated cells, BB94): sensitive
- Generation of the higher MW forms of TGFalpha by endogenous shedding: sensitivity to inhibitor [4, 12]: insensitive
- Trimming to smaller intermediates and species lacking the pro-peptide [4, 12]: blocked
- Processing of the 37 kDa form to the 6 kDa secreted bioactive ligand: sensitivity to inhibitor ([4]; bombesin-treated COS-7 cells overexpressing the bombesin receptor): sensitive

Molecule: O=c1oc(Cl)c(Cl)c2ccccc12 [DCI, 3,4-Dichloroisocoumarin]
- Release of the 37 kDa form of TGFalpha in response to PMA ([1]; DCI 100 μM, Bcl-XL co-expressed): inhibited; also recorded: strong and specific inhibitory effect
- Toxicity to cells [5]: toxic to cells
- Cleavage of Drosophila Gurken TMD substrate [6]: inhibited

Molecule: CCCCCCCCCCCCCC(=O)O[C@@H]1[C@@H](C)[C@@]2(O)[C@@H](C=C(CO)C[C@]3(O)C(=O)C(C)=C[C@@H]23)[C@@H]2C(C)(C)[C@]12OC(C)=O [PMA, phorbol 12-myristate 13-acetate]
- BB94-insensitive TGFalpha release activity [7]: induced
- BB94-sensitive (metalloprotease dependent) trimming of TGFalpha [7]: enhanced

Molecule: CC[C@H](C)[C@H](NC(=O)[C@H]([C@@H](C)CC)N(C)C(C)=O)C(=O)N[C@H](C(=O)N[C@@H](CC(C)C)C(=O)[C@@]1(C)CO1)[C@@H](C)O [epoxomicin]
- Effect on pro-TGFalpha forms (proteasomal degradation) [8]: led to unglycosylated TGFalpha

B1: mouse RHBDL4 with an N-terminal HA3-tag (protein)
chain: T1 sequence (Q8BHC7 1-315)
- cleavage of pro-TGFalpha, titration of protease plasmid (Western blot) [9]: cleavage of TGFalpha requires sub-stoichiometric amounts of RHBDL4
- cleavage [10]: Note that RHBDL4 cleaves Spitz

B2: recombinant mouse TACE (R&D Systems) (protein)
chain: RAEPNPLKNTCKLLVVADHRFYKYMGRGEESTTTNYLIELIDRVDDIYRNTSWDNAGFKGYGVQIEQIRILKSPQEVKPGERHFNMAKSFPNEEKDAWDVKMLLEQFSFDIAEEASKVCLAHLFTYQDFDMGTLGLAYVGSPRANSHGGVCPKAYYNPTVKKNIYLNSGLTSTKNYGKTILTKEADLVTTHELGHNFGAEHDPDGLAECAPNEDQGGKYVMYPIAVSGDHENNKMFSNCSKQSIYKTIESKAQECFQERSNKVCGNSRVDEGEECDPGIMYLNNDTCCNSDCTLKPGVQCSDRNSPCCKNCQFETAQKKCQEAINATCKGVSYCTGNSSECPPPGDAEDDTVCLDLGKCKAGKCIPFCKREQELESCACVDTDNSCKVCCRNLSGPCVPYVDAEQKNLFLRKGKPCTVGFCDMNGKCEKRVQDVIERFWDFIDQLSINTFGKFLADN
- in vitro TACE cleavage assay (Western blot) [11]: Recombinant TACE cleaved the post-translationally modified higher MW forms of TGFalpha. (filled triangles), generating the mature 6 kDa form
